Data published in paper PMC8113459, “Selective inhibition of cullin 3 neddylation through covalent targeting DCN1 protects mice from acetaminophen-induced liver toxicity” (Nature Communications, 2021).
Where “and” joins values, the source holds several entries; their conditions need not be identical. Equal values may be shown once. Read-outs that look alike come from different tables or passages of the source.

Legend:
DCN1 = DCN1 (Homo sapiens, UniProt Q96GG9); assay: Intact-protein mass spectrometric analysis of covalent complex formation, Method A; assay type: binding; conditions: for Percentage of the formation of covalent complex with DCN1 protein: 37 °C
Text: MassHunter Qualitative Analysis software (Agilent) was used to analyze the data. Intact protein masses were obtained using the maximum entropy deconvolution algorithm. The mass spectrometry data in Supplementary Figs. 1–11 were generated by Method A.

DCN3 protein = DCN3 protein (Homo sapiens, UniProt Q8IWE4); assay: Intact-protein mass spectrometric analysis, Method B (DCN3); assay type: binding; conditions: 3 h incubation
Procedure: Method B: Recombinant DCN1 or DCN3 protein (100 nM in 25 mM Tris 7.5, 200 mM NaCl, 1 mM DTT buffer) was incubated with 1.2-fold excess of the DCN1 inhibitors at 37 °C for 10 min, 1 h, or 3 h. Following incubation, the protein was analyzed by LC–MS (Agilent Q-TOF 6545) under the following conditions: fragmentor voltage, 300 V; skimmer voltage, 75 V; nozzle voltage, 100 V; sheath gas temperature, 350 °C; and drying gas temperature, 325 °C. MassHunter Qualitative Analysis software (Agilent) was used to analyze the data. Intact protein masses were obtained using the maximum entropy deconvolution algorithm. The mass spectrometry data in Supplementary Figs. 14–17 were generated by Method B.

neddylation of cullin 3 [1] = assay: Western blot, cullin 3 neddylation in U2OS cells; assay type: cell-based, human; conditions: 24 h, Fig. 1c
neddylation of cullin 3 [2] = assay: Western blot, cullin 3 neddylation in cells of different tissue types (U2OS, THLE2, MDA-MB-231, KYSE70, HCT116); assay type: cell-based, human
[3] = tested on: neddylation of cullin 1, 2, 4A, 4B, and 5; assay: Western blot, neddylation of other cullin members; assay type: cell-based, human
Procedure: Western blotting was performed as described previously. Treated cells were lysed by RIPA buffer supplemented with protease inhibitor. The expression level of indicated proteins was examined by immunoblotting analysis and GAPDH was used as the loading control. Antibodies were purchased commercially: cullin 1 (sc-17775, 1:500 dilution) and cullin 2 (sc-166506, 1:500 dilution) from Santa Cruz Biotech (Santa Cruz, CA); cullin 4A (PA5-14542, 1:1000 dilution), cullin 4B (PA5-50647, 1:1000 dilution), and DCN3 (DCUN1D3, PA5-44000, 1:1000 dilution) from Thermo Fisher Scientific (Wayne, MI); cullin 3 (2759, 1:1000), NRF2 (12721, 1:1000 dilution), HO-1 (70081, 1:1000 dilution), and Bim (2819, 1:1000 dilution) from Cell Signaling Technology (Boston, MA); DCN1 (GWB-E3D700, 1:1000 dilution) from GenWay Biotech (San Diego, CA); and cullin 5 (A302-173A, 1:500 dilution) from Bethyl Labs (Montgomery, TX). Results are representative of two independent experiments.

[4] = Pharmacokinetics: concentrations in mouse plasma and liver; assay type: in vivo; conditions: for concentration at 1 h / concentration at 3 h / concentration at 6 h / concentration at 24 h: male, C57BL/6, mouse, ip
Procedure: Supplementary Table 2A. Concentrations of DI-1548 in mouse Plasma and liver after the C57BL/6 male mice were treated with a single dose of DI-1548 at 25 mg/kg via intraperitoneal (IP) injection. BLQ: below the limit of quantification.
Time point (h) Plasma (ng /mL) Liver (ng /g)
Supplementary Table 2B. Concentrations of DI-1859 in mouse Plasma and liver after the C57BL/6 male mice were treated with a single dose of DI-1859 at 25 mg/kg via intraperitoneal (IP) injection. BLQ:
Time point (h) Pl asma (ng /mL) Liver (ng /g) […]

[5] = C57BL/6 male mice, 25 mg/kg IP, 6 h
[6] = C57BL/6 male mice, 25 mg/kg IP, 24 h

Chain of DCN1 (Q96GG9 58-259 limits assumed): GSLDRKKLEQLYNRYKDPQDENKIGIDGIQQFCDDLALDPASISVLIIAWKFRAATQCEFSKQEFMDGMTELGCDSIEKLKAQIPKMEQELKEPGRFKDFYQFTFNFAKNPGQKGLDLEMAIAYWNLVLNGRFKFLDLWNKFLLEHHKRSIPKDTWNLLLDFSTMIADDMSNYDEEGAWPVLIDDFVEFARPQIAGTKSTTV
Chain of DCN3 protein (Q8IWE4 86-304 limits assumed): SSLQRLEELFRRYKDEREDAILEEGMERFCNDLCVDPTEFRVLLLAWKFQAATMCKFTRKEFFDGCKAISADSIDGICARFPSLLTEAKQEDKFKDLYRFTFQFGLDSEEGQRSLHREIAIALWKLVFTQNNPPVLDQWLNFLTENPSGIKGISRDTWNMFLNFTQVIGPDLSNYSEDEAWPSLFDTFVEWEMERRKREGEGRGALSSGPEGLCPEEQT

With `C=C(CN(C)C)C(=O)NC[C@@H](NC(=O)[C@H](Cc1nc2ccc(C(C)C)cc2s1)NC(=O)CC)C1CCCCC1` [DI-1859] the “covalent complex formation / reaction kinetics with DCN1 protein (in words)” value (DCN1) was “very fast covalent complex formation”, the “Percentage of the formation of covalent complex with DCN1 protein” value (“Percentage” below) (DCN1; 10 min incubation, 1.2-fold excess inhibitor) was 100% and the “Percentage” value (DCN1; 60 min (1 h) incubation) was 100%. The “Percentage” value (DCN1; 180 min (3 h) incubation) was 100%, the “covalent complex formation with DCN3” value (DCN3 protein) was “fail to form any detectable complex” and the “concentration as low as which cullin 3 neddylation is inhibited” value (neddylation of cullin 3 [1]) was ≤ 1 nM. The “potency in inhibition of cullin 3 neddylation compared with DI-591” value (neddylation of cullin 3 [1]) was “much more potent than DI-591”, the “times more potent than DI-591 in inhibition of cullin 3 neddylation” value (neddylation of cullin 3 [1]) was ~ 1000 times and the “concentration achieving profound inhibition of the neddylation of cullin 3” value (neddylation of cullin 3 [2]) was 1 to 3 nM. For the same molecule, the “concentration as low as which the level of neddylated cullin 3 is significantly reduced” value (neddylation of cullin 3 [2]) was ≤ 0.3 nM, the “inhibition of neddylation of cullin members” value ([3]; THLE2, Fig. 6b) was “similar, high selectivity” and the “selectivity in inhibition of the neddylation of cullin 3 over other cullin members” value ([3]; a number of cell lines) was 1000 fold. The “time by which the compounds were cleared from systemic circulation” value ([4]; 25 mg/kg IP) was < 3 h, the Liver concentration [4, 5] was “BLQ” and the Plasma concentration [4, 5] was “BLQ”. For the same molecule, the Liver concentration [4, 6] was “BLQ”, the Plasma concentration [4, 6] was “BLQ” and the concentration at 1 h ([4]; liver, 25 mg/kg, C57BL/6 male mice, 25 mg/kg IP, 1 h, read-out: Liver concentration) was 3280 ± 531 ng/g. For the same molecule, the concentration at 3 h ([4]; liver, 25 mg/kg, C57BL/6 male mice, 25 mg/kg IP, 3 h, read-out: Liver concentration) was 30 ± 29 ng/g, the concentration at 1 h ([4]; liver, 25 mg/kg, mouse liver, IP 25mg/kg, 1h, mean of 3 mice, read-out: Concentration in mouse liver, MEAN) was 3280 ng/g and the concentration at 1 h ([4]; liver, 25 mg/kg, mouse liver, IP 25mg/kg, 1h, single animals, read-out: Concentration in mouse liver, individual mice 1, 2, 3) was 3880 ng/g. For the same molecule, the concentration at 3 h ([4]; liver, 25 mg/kg, mouse liver, IP 25mg/kg, 3h, mean of 3 mice, read-out: Concentration in mouse liver, MEAN) was 30.3 ng/g, the concentration at 6 h ([4]; liver, 25 mg/kg, mouse liver, IP 25mg/kg, 6h, mean of 3 mice, read-out: Concentration in mouse liver, MEAN) was 2.27 ng/g and the concentration at 24 h ([4]; liver, 25 mg/kg, mouse liver, IP 25mg/kg, 24h, mean, read-out: Concentration in mouse liver, MEAN) was 1.46 ng/g. The concentration at 24 h ([4]; liver, 25 mg/kg, mouse liver, IP 25mg/kg, 24h, single animals, read-out: Concentration in mouse liver, individual mice 1, 2, 3) was 1.56 ng/g, the concentration at 1 h ([4]; plasma, 25 mg/kg, C57BL/6 male mice, 25 mg/kg IP, 1 h, read-out: Plasma concentration) was 1740 ± 292 ng/mL and the concentration at 3 h ([4]; plasma, 25 mg/kg, C57BL/6 male mice, 25 mg/kg IP, 3 h, read-out: Plasma concentration) was 28 ± 12 ng/mL. The concentration at 1 h ([4]; plasma, 25 mg/kg, mouse plasma, IP 25mg/kg, 1h, mean of 3 mice, read-out: Concentration in mouse plasma, MEAN) was 1740 ng/mL, the concentration at 1 h ([4]; plasma, 25 mg/kg, mouse plasma, IP 25mg/kg, 1h, single animals, read-out: Concentration in mouse plasma, individual mice 1, 2, 3) was 2070 ng/mL and the concentration at 3 h ([4]; plasma, 25 mg/kg, mouse plasma, IP 25mg/kg, 3h, mean of 3 mice, read-out: Concentration in mouse plasma, MEAN) was 27.9 ng/mL. For the same molecule, the concentration at 6 h ([4]; plasma, 25 mg/kg, mouse plasma, IP 25mg/kg, 6h, mean (only one mouse above the limit of quantification), read-out: Concentration in mouse plasma, MEAN) was 1.04 ng/mL, the concentration at 6 h ([4]; plasma, 25 mg/kg, mouse plasma, IP 25mg/kg, 6h, single animals, limit of quantification 1 ng/mL, read-out: Concentration in mouse plasma, individual mice 1, 2, 3) was < 1 ng/mL and the concentration at 24 h ([4]; plasma, 25 mg/kg, mouse plasma, IP 25mg/kg, 24h, single animals, limit of quantification 1 ng/mL, read-out: Concentration in mouse plasma, individual mice 1, 2, 3) was < 1 ng/mL. For the same molecule, the “Concentration in mouse liver, individual mice 1, 2, 3” value (“Concentration in mouse liver” below) ([4]; mouse liver, IP 25mg/kg, 1h, single animals, 25 mg/kg) was 3079.98 ng/g and 2879.94 ng/g, the “Concentration in mouse liver” value ([4]; mouse liver, IP 25mg/kg, 3h, single animals, 25 mg/kg) was 13.04 ng/g and 64.07 ng/g and 13.91 ng/g and the “Concentration in mouse liver” value ([4]; mouse liver, IP 25mg/kg, 6h, single animals, 25 mg/kg) was 1.59 ng/g. The “Concentration in mouse liver” value ([4]; mouse liver, IP 25mg/kg, 24h, single animals, 25 mg/kg) was 1.41 ng/g and 1.40 ng/g, the “Concentration in mouse plasma, individual mice 1, 2, 3” value (“Concentration in mouse plasma” below) ([4]; mouse plasma, IP 25mg/kg, 1h, single animals, 25 mg/kg) was 1549.72 ng/mL and 1588.65 ng/mL and the “Concentration in mouse plasma” value ([4]; mouse plasma, IP 25mg/kg, 3h, single animals, 25 mg/kg) was 36.02 ng/mL and 14.64 ng/mL and 33.18 ng/mL. The “Concentration in mouse plasma” value ([4]; mouse plasma, IP 25mg/kg, 6h, single animals, limit of quantification 1 ng/mL, 25 mg/kg) was <1 ng/mL and 1.04 ng/mL and the “Concentration in mouse plasma” value ([4]; mouse plasma, IP 25mg/kg, 24h, single animals, limit of quantification 1 ng/mL) was <1 ng/mL.
